Here are results for 24 compounds from patent US12570659B2, “Bicyclic heteroaryl compounds useful as IRAK4 inhibitors” (BRISTOL-MYERS SQUIBB COMPANY, priority 2019, dated 2026).

SMILES strings stand for the structures. Where only a bound is given, the exact number is not on record here.

One experiment concerns the target IRAK4 (Homo sapiens (Human), UniProt Q9NWZ3). The experiment is described as follows: IRAK4 Inhibition Assay. Type of experiment: biochemical. The following applies: ATP 500 μM; IRAK4 0.6 nM; 60 min room temperature. The protocol: IRAK4 Inhibition Assay The assays were performed in U-bottom 384-well plates. […] The reaction was initiated by the combination of IRAK4 with substrates and test compounds. The reaction mixture was incubated at room temperature for 60 min. and terminated by adding 45 μL of 35 mM EDTA to each sample. The reaction mixture was analyzed on the Caliper LABCHIP® 3000 (Caliper, Hopkinton, MA) by electrophoretic separation of the fluorescent substrate and phosphorylated product. Inhibition data were calculated by comparison to no enzyme control reactions for 100% inhibition and vehicle-only reactions for 0% inhibition.

The target in another experiment is JAK3 kinase (Homo sapiens (Human), UniProt P52333). The experiment is described as follows: JAK3 Homogeneous Time Resolved Fluorescence (HTRF) Assay. Type of experiment: binding. The following applies: for IC50: competition binding with fluorescein-labeled ATP competitive probe; for Ratio of JAK3 IC50 to IRAK4 IC50: selectivity for IRAK4 over JAK3. The protocol: JAK3 Homogeneous Time Resolved Fluorescence (HTRF) Assay
A time resolved FRET-based competition binding assay was used to assess test article binding to JAK3 kinase. His-tagged or GST-tagged kinase at a concentration of 1 nM was incubated with 0.2 nM Tb-labeled detection antibody (anti-His or anti-GST), test compound, and fluorescein-labeled ATP competitive probe at a concentration corresponding to the probe's equilibrium dissociation constant for one hour. Fluorescence at 495 nm and 520 nm was measured using an EnVision microplate reader to quantify FRET between Tb-labeled detection antibody and fluorescein-labeled probe. Background subtracted FRET ratios were normalized to the maximum signal obtained in the absence of test compound. These values were converted to a percent inhibition. Percent inhibition was determined for test compounds at 11 concentrations. The IC50, defined as the concentration of the competing test compound needed to reduce specific binding of the probe by 50%, was calculated using the 4 parameter logistic equation to fit the data.
In general terms: In TR-FRET formats the signal depends on donor and acceptor labels being close together.

Chain of JAK3 kinase (P52333 whole entry): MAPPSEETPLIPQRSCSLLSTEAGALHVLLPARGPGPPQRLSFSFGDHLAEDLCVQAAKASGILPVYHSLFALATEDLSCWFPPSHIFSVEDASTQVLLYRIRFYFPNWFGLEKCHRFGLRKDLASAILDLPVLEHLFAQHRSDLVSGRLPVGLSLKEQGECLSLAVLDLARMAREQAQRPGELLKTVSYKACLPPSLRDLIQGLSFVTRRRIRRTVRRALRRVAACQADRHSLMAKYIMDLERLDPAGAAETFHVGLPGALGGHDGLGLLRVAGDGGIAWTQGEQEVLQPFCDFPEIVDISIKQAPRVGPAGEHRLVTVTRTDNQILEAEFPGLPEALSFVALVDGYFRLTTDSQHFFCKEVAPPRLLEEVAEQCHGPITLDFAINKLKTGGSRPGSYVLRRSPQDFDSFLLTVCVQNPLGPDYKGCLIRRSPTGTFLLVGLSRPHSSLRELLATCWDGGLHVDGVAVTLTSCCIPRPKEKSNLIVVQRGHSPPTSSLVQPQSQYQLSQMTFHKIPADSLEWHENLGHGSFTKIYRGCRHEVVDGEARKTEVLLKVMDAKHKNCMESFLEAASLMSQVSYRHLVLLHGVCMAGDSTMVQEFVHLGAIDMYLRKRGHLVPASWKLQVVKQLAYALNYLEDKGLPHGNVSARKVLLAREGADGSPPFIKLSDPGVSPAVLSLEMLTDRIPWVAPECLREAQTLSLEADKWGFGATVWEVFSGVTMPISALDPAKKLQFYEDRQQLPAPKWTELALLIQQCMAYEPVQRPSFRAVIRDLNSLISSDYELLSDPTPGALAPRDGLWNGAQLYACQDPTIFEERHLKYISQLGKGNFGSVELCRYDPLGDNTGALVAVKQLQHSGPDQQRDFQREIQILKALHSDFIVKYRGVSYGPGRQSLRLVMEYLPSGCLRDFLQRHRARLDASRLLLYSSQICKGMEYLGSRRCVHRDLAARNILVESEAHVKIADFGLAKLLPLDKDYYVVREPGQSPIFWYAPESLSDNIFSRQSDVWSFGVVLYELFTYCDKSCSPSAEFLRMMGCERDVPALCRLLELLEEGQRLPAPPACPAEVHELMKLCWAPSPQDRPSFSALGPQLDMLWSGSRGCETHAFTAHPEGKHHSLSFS
Chain of IRAK4 (Q9NWZ3 whole entry, species assumed): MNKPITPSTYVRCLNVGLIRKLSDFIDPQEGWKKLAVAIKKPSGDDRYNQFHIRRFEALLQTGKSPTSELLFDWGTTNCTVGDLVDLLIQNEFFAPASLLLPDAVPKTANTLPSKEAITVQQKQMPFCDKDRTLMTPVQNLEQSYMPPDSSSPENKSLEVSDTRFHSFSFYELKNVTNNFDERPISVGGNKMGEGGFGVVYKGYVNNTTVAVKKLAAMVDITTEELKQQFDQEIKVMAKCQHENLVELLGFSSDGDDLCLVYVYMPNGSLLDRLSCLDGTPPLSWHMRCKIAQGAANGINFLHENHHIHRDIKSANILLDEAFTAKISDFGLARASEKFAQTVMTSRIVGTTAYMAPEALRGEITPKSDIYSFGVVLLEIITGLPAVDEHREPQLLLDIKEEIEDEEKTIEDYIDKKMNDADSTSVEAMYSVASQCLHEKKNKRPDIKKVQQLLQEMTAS

For `CC(C)Nc1c(C(=O)NC[C@@H](F)C(C)(C)O)cnn2cc(-c3cncnc3)cc12` [Example 4, (R)—N-(2-fluoro-3-hydroxy-3-methylbutyl)-4-(isopropylamino)-6-(pyrimidin-5-yl)pyrrolo[1,2-b]pyridazine-3-carboxamide], the 50% inhibitory concentration (IC50) on IRAK4 is 19 nM. Besides, at JAK3 kinase, the IC50 is above 50000 nM and the “Ratio of JAK3 IC50 to IRAK4 IC50” value is on record as above 2632.

Turning to `CC(C)(O)[C@H](F)CNC(=O)c1cnn2cc(-c3cccnc3)cc2c1NC1CCOCC1` [Example 6, (R)—N-(2-fluoro-3-hydroxy-3-methylbutyl)-6-(pyridin-3-yl)-4-((tetrahydro-2H-pyran-4-yl)amino) pyrrolo[1,2-b] pyridazine-3-carboxamide], on IRAK4, the IC50 stood at 54 nM. On JAK3 kinase, the half-maximal inhibitory concentration (IC50) was above 50000 nM and the “Ratio of JAK3 IC50 to IRAK4 IC50” value is above 926.

For the compound `CC(C)Nc1c(C(=O)NC[C@@H](F)C(C)(C)O)cnn2cc(-c3cccnc3F)cc12` [Example 7, (R)—N-(2-fluoro-3-hydroxy-3-methylbutyl)-6-(2-fluoropyridin-3-yl)-4-(isopropylamino)pyrrolo[1,2-b]pyridazine-3-carboxamide], the half-inhibitory concentration (IC50) on IRAK4 was determined as 6.4 nM. Besides, on JAK3 kinase, the IC50 is above 10000 nM and the “Ratio of JAK3 IC50 to IRAK4 IC50” value is reported as above 1563.

Turning to `CC(C)(O)[C@H](F)CNC(=O)c1cnn2cc(-c3cccnc3F)cc2c1NC1CCOCC1` [Example 8, (R)—N-(2-fluoro-3-hydroxy-3-methylbutyl)-6-(2-fluoropyridin-3-yl)-4-((tetrahydro-2H-pyran-4-yl)amino)pyrrolo[1,2-b]pyridazine-3-carboxamide], the IC50 on IRAK4 stood at 25 nM. In addition, at JAK3 kinase, the IC50 is above 50000 nM and the “Ratio of JAK3 IC50 to IRAK4 IC50” value is reported as above 2000.

In the case of `CC(C)(O)[C@H](F)CNC(=O)c1cnn2cc(-c3ccncc3)cc2c1NC1CCOCC1` [Example 9, (R)—N-(2-fluoro-3-hydroxy-3-methylbutyl)-6-(pyridin-4-yl)-4-((tetrahydro-2H-pyran-4-yl)amino) pyrrolo[1,2-b] pyridazine-3-carboxamide], the IC50 on IRAK4 was 17 nM. Besides, on JAK3 kinase, the half-inhibitory concentration (IC50) is above 50000 nM and the “Ratio of JAK3 IC50 to IRAK4 IC50” value is reported as above 2941.

Consider `COc1ccc(-c2cc3c(NC4CCOCC4)c(C(=O)NC[C@@H](F)C(C)(C)O)cnn3c2)cn1` [Example 10, (R)—N-(2-fluoro-3-hydroxy-3-methylbutyl)-6-(6-methoxypyridin-3-yl)-4-((tetrahydro-2H-pyran-4-yl)amino)pyrrolo[1,2-b]pyridazine-3-carboxamide], for which the half-maximal inhibitory concentration (IC50) on IRAK4 was 57 nM; on JAK3 kinase, above 10000 nM. The “Ratio of JAK3 IC50 to IRAK4 IC50” value at JAK3 kinase is on record as above 175.

Take `COc1cc(-c2cc3c(NC4CCOCC4)c(C(=O)NC[C@@H](F)C(C)(C)O)cnn3c2)ccn1` [Example 11, (R)—N-(2-fluoro-3-hydroxy-3-methylbutyl)-6-(2-methoxypyridin-4-yl)-4-((tetrahydro-2H-pyran-4-yl)amino)pyrrolo[1,2-b]pyridazine-3-carboxamide]: at IRAK4, the IC50 came out at 86 nM. For the same compound, at JAK3 kinase, the IC50 is above 50000 nM and the “Ratio of JAK3 IC50 to IRAK4 IC50” value is on record as above 581.

For `CC(C)(O)[C@H](F)CNC(=O)c1cnn2cc(-c3ccc(C#N)c(F)c3)cc2c1NC1CCOCC1` [Example 12, (R)-6-(4-cyano-3-fluorophenyl)-N-(2-fluoro-3-hydroxy-3-methylbutyl)-4-((tetrahydro-2H-pyran-4-yl)amino)pyrrolo[1,2-b]pyridazine-3-carboxamide], the IC50 was 250 nM at IRAK4 and above 50000 nM at JAK3 kinase. On JAK3 kinase, the “Ratio of JAK3 IC50 to IRAK4 IC50” value is recorded as above 200.

In the case of `CC(C)Nc1c(C(=O)NC[C@@H](F)C(C)(C)O)cnn2cc(-c3ccc(F)cc3)cc12` [Example 13, (R)—N-(2-fluoro-3-hydroxy-3-methylbutyl)-6-(4-fluorophenyl)-4-(isopropylamino)pyrrolo[1,2-b]pyridazine-3-carboxamide], the IC50 on IRAK4 is 29 nM. In addition, at JAK3 kinase, the IC50 was above 50000 nM and the “Ratio of JAK3 IC50 to IRAK4 IC50” value is recorded as above 1724.

For `CC(C)Nc1c(C(=O)NC[C@@H](F)C(C)(C)O)cnn2cc(-c3cccc(CN4CCOCC4)c3)cc12` [Example 14, (R)—N-(2-fluoro-3-hydroxy-3-methylbutyl)-4-(isopropylamino)-6-(3-(morpholinomethyl)phenyl) pyrrolo[1,2-b]pyridazine-3-carboxamide], the IC50 at IRAK4 amounted to 1670 nM. Moreover, on JAK3 kinase, the IC50 was above 10000 nM and the “Ratio of JAK3 IC50 to IRAK4 IC50” value is on record as above 6.

Take `CC(C)Nc1c(C(=O)NC[C@@H](F)C(C)(C)O)cnn2cc(-c3cnc(N)nc3)cc12` [Example 15, (R)-6-(2-aminopyrimidin-5-yl)-N-(2-fluoro-3-hydroxy-3-methylbutyl)-4-(isopropylamino) pyrrolo[1,2-b]pyridazine-3-carboxamide]: the IC50 at IRAK4 worked out at 22 nM. At JAK3 kinase, the IC50 was above 50000 nM and the “Ratio of JAK3 IC50 to IRAK4 IC50” value was above 2273.

Consider `CC(C)Nc1c(C(=O)NC[C@@H](F)C(C)(C)O)cnn2cc(-c3ccccn3)cc12` [Example 16, (R)—N-(2-fluoro-3-hydroxy-3-methylbutyl)-4-(isopropylamino)-6-(pyridin-2-yl)pyrrolo[1,2-b]pyridazine-3-carboxamide], for which the IC50 on IRAK4 came out at 17 nM. Besides, on JAK3 kinase, the IC50 is above 50000 nM and the “Ratio of JAK3 IC50 to IRAK4 IC50” value is above 2941.

For `CC(C)Nc1c(C(=O)NC[C@@H](F)C(C)(C)O)cnn2cc(-c3nccs3)cc12` [Example 17, (R)—N-(2-fluoro-3-hydroxy-3-methylbutyl)-4-(isopropylamino)-6-(thiazol-2-yl)pyrrolo[1,2-b]pyridazine-3-carboxamide], the half-inhibitory concentration (IC50) at IRAK4 worked out at 6.3 nM.

With `CC(C)Nc1c(C(=O)NC[C@@H](F)C(C)(C)O)cnn2cc(-c3ccc(F)cn3)cc12` [Example 18, (R)—N-(2-fluoro-3-hydroxy-3-methylbutyl)-6-(5-fluoropyridin-2-yl)-4-(isopropylamino)pyrrolo[1,2-b]pyridazine-3-carboxamide], on IRAK4, the IC50 is 12 nM. On JAK3 kinase, the concentration for half-maximal inhibition (IC50) is above 50000 nM and the “Ratio of JAK3 IC50 to IRAK4 IC50” value is given as above 4167.

Consider `CC(C)(O)[C@H](F)CNC(=O)c1cnn2cc(-c3ccccc3)cc2c1NC1CCCC1` [Example 29, (R)-4-(cyclopentylamino)-N-(2-fluoro-3-hydroxy-3-methylbutyl)-6-phenylpyrrolo[1,2-b] pyridazine-3-carboxamide], for which, on IRAK4, the IC50 was found to be 180 nM.

Regarding `CNC(=O)[C@H]1CC[C@H](NC(=O)c2cnn3cc(-c4ccc(C#N)nc4)cc3c2NC(C)C)CC1` [Example 94, 6-(6-cyanopyridin-3-yl)-4-(isopropylamino)-N-((1r,4r)-4-(methylcarbamoyl)cyclohexyl) pyrrolo[1,2-b]pyridazine-3-carboxamide], on IRAK4, the IC50 worked out at 14 nM.

For `CNC(=O)[C@H]1CC[C@H](NC(=O)c2cnn3cc(-c4ccc(C(N)=O)nc4)cc3c2NC(C)C)CC1` [Example 95, 6-(6-carbamoylpyridin-3-yl)-4-(isopropylamino)-N-((1r,4r)-4-(methylcarbamoyl)cyclohexyl)pyrrolo[1,2-b]pyridazine-3-carboxamide], on IRAK4, the IC50 is 35 nM.

With `CNC(=O)c1cnc2cc(-c3ccccc3)nn2c1N[C@H](CO)Cc1ccccc1` [Example 116, (S)-7-((1-hydroxy-3-phenylpropan-2-yl)amino)-N-methyl-2-phenylpyrazolo[1,5-a]pyrimidine-6-carboxamide], the IC50 on IRAK4 stood at 1620 nM.

As to `CNC(=O)c1cnc2cc(-c3ccccc3)nn2c1NC1CCCCC1` [Example 117, 7-(cyclohexylamino)-N-methyl-2-phenylpyrazolo[1,5-a]pyrimidine-6-carboxamide], the IC50 on IRAK4 turned out to be 5570 nM.

In the case of `CNC(=O)c1cnc2cc(-c3ccc(C#N)cc3)nn2c1NC(C)C` [Example 118, 2-(4-cyanophenyl)-7-(isopropylamino)-N-methylpyrazolo[1,5-a] pyrimidine-6-carboxamide], on IRAK4, the 50% inhibitory concentration (IC50) came out at 240 nM.

As for `CNC(=O)c1cnc2cc(-c3ccnc(N4CCOCC4)c3)nn2c1NC(C)C` [Example 119, 7-(isopropylamino)-N-methyl-2-(2-morpholinopyridin-4-yl)pyrazolo[1,5-a]pyrimidine-6-carboxamide], the IC50 at IRAK4 was 2930 nM.

Regarding `CNC(=O)c1cnc2cc(-c3ccncc3)nn2c1NC(C)C` [Example 120, 7-(isopropylamino)-N-methyl-2-(pyridin-4-yl)pyrazolo[1,5-a]pyrimidine-6-carboxamide], the IC50 on IRAK4 was 410 nM.

For `CNC(=O)c1cnc2cc(-c3ccc4ncsc4c3)nn2c1NC(C)C` [Example 121, 2-(benzo[d]thiazol-6-yl)-7-(isopropylamino)-N-methylpyrazolo[1,5-a]pyrimidine-6-carboxamide], the IC50 on IRAK4 came to 590 nM.

Regarding `CC(C)Nc1c(C(=O)NC[C@@H](F)C(C)(C)O)cnc2cc(-c3nccs3)nn12` [Example 158, (R)—N-(2-fluoro-3-hydroxy-3-methylbutyl)-7-(isopropylamino)-2-(thiazol-2-yl)pyrazolo[1,5-a]pyrimidine-6-carboxamide], the IC50 on IRAK4 came out at 20 nM.

One may read the IC50 as the concentration at which inhibition is half-maximal.
